Where two headings read alike, the source gives them in different places.

One test relates to HCT116 MTAP WT cells. Put plainly: Proliferation inhibition of HCT116 cells in vitro (CellTiter Glo, 6 days). Format: cell-based. As to conditions: read-out: Cell proliferation inhibition rate HCT116 MTAP WT IC50 (nm). For orientation: ATP-based viability assays read luminescence as a measure of living cells.
In test [1] the test system is HCT116-MTAP-KO (MTAP null) cells. Put plainly: Proliferation inhibition of HCT116 MTAP-KO cells in vitro (CellTiter Glo, 6 days). Type of test: cell-based. To be noted: read-out: Cell proliferation inhibition rate HCT116-MTAP null IC50 (nm).

Turning to `Cn1nccc1N(Cc1cn2cc(C(F)(F)F)ccc2n1)C(=O)c1ccc2nc(N)c3c(c2c1)OCC3` [Example 112], the IC50 in the test on HCT116 MTAP WT cells (Homo sapiens, HCT-116, 144 h) is 100 to 1000 nM; in test [1] (HCT116-MTAP null, 144 h), under 100 nM.
`Cn1cc(N(Cc2cn3cc(C(F)(F)F)ccc3n2)C(=O)c2ccc3nc(N)c4c(c3c2)OCC4)cn1` [Example 113]: the IC50 is 1000 to 10000 nM in the test with HCT116 MTAP WT cells (Homo sapiens, HCT-116, 144 h) and 100 to 1000 nM in test [1] (HCT116-MTAP null, 144 h).
Take `Cn1ncc(F)c1N(Cc1cn2cc(C(F)(F)F)ccc2n1)C(=O)c1ccc2nc(N)c3cnn(C)c3c2c1` [Example 115]: the IC50 was 100 to 1000 nM with HCT116 MTAP WT cells (Homo sapiens, HCT-116, 144 h) and under 100 nM in test [1] (HCT116-MTAP null, 144 h).
Taken in the same sequence, the figures for `CC(c1ncccn1)N(Cc1cc2ccccn2n1)C(=O)c1ccc2nc(N)c3c(c2c1)CCC3` (centres unmarked) [Example 116] were 1000 to 10000 nM and under 100 nM.
Taken in the same sequence, the figures for `CCN(C(=O)c1ccc2nc(N)c3c(cnn3C)c2c1)C(C)c1cc2ccccn2n1` (centres unmarked) [Example 117] were 1000 to 10000 nM and 100 to 1000 nM.
Taken in the same sequence, the figures for `CCN(Cc1cc2ccccn2n1)C(=O)c1ccc2nc(N)c3c(cnn3C)c2c1` [Example 118] were 1000 to 10000 nM and 100 to 1000 nM.
Regarding `CCN(C(=O)c1ccc2nc(N)c3c(c2c1)COC3)C(C)c1cc2ccccn2n1` (centres unmarked) [Example 119, 4-Amino-N-ethyl-N-(1-(pyrazolo[1,5-a]pyridin-2-yl)ethyl)-1,3-dihydrofurano[3,4-c]quinolin-8-carboxamide], the IC50 is 1000 to 10000 nM in the test on HCT116 MTAP WT cells (Homo sapiens, HCT-116, 144 h) and under 100 nM in test [1] (HCT116-MTAP null, 144 h).
As for `Cc1cc2cc(C(=O)N(Cc3cc4ccccn4n3)C(C)c3ncccn3)ccc2nc1N` (centres unmarked) [Example 120], the IC50 with HCT116 MTAP WT cells (Homo sapiens, HCT-116, 144 h) is 1000 to 10000 nM; in test [1] (HCT116-MTAP null, 144 h) it was under 100 nM.
For `CCN(Cc1cc2ccccn2n1)C(=O)c1ccc2nc(N)c3c(c2c1)COC3C` (centres unmarked) [Example 121], in that order: 1000 to 10000 nM and 100 to 1000 nM.
For `Cc1cc2cc(C(=O)N(Cc3cc4ccccn4n3)C(C)c3cccc(F)n3)ccc2nc1N` (centres unmarked) [Example 122], in that order: 1000 to 10000 nM and under 100 nM.
Turning to `C[C@H]1COC[C@@H](c2cc3ccccn3n2)N1C(=O)c1cc2c(cc1F)nc(N)c1cnn(C)c12` [Example 123], the IC50 was 100 to 1000 nM in the test with HCT116 MTAP WT cells (Homo sapiens, HCT-116, 144 h) and under 100 nM in test [1] (HCT116-MTAP null, 144 h).
Regarding `C[C@H]1COC[C@@H](c2cc3ccccn3n2)N1C(=O)c1cc2c3c(c(N)nc2cc1F)COC3` [Example 124], the IC50 is 1000 to 10000 nM in the test with HCT116 MTAP WT cells (Homo sapiens, HCT-116, 144 h) and under 100 nM in test [1] (HCT116-MTAP null, 144 h).
For `Cc1nn(C)cc1N(Cc1cc2ccc(C(F)(F)F)cn2n1)C(=O)c1ccc2nc(N)c3c(c2c1)COC3` [Example 126], in that order: 1000 to 10000 nM and under 100 nM.
For `CC(c1ncccn1)N(Cc1nc2ccccc2[nH]1)C(=O)c1ccc2nc(N)c3c(c2c1)CCC3` (centres unmarked) [Example 128], in that order: 100 to 1000 nM and 100 to 1000 nM.
As for `COCC(C1CC1)N(Cc1nc2ccccc2[nH]1)C(=O)c1ccc2nc(N)c3c(c2c1)CCC3` (centres unmarked) [Example 129], the IC50 in the test with HCT116 MTAP WT cells (Homo sapiens, HCT-116, 144 h) is 1000 to 10000 nM; in test [1] (HCT116-MTAP null, 144 h), under 100 nM.
Take `CC(C)N(Cc1nc2ccccc2[nH]1)C(=O)c1ccc2cc(N)c3c(c2c1)CCC3` [Example 130]: the IC50 with HCT116 MTAP WT cells (Homo sapiens, HCT-116, 144 h) was 1000 to 10000 nM; in test [1] (HCT116-MTAP null, 144 h) it was under 100 nM.
For `CC(C)CN(Cc1nc2ccc(C(F)(F)F)cc2[nH]1)C(=O)c1ccc2nc(N)c3c(c2c1)COC3` [Example 131], the IC50 with HCT116 MTAP WT cells (Homo sapiens, HCT-116, 144 h) was 1000 to 10000 nM; in test [1] (HCT116-MTAP null, 144 h), 100 to 1000 nM.
For `CC(C)CN(Cc1nc2cc(S(F)(F)(F)(F)F)ccc2[nH]1)C(=O)c1cc2c(cc1F)nc(N)c1cnn(C)c12` [Example 133], in that order: 100 to 1000 nM and under 100 nM.
Taken in the same sequence, the figures for `CCN(Cc1nc2ccc(C(F)(F)F)cc2[nH]1)C(=O)c1ccc2nc(N)c3c(c2c1)COC3C` (centres unmarked) [Example 134] were 1000 to 10000 nM and under 100 nM.
Taken in the same sequence, the figures for `CCN(Cc1nc2ccccc2[nH]1)C(=O)c1ccc2nc(N)c3c(c2c1)COC3C` (centres unmarked) [Example 135] were 1000 to 10000 nM and 100 to 1000 nM.
Consider `CC(C)CN(Cc1nc2ccccc2[nH]1)C(=O)c1ccc2nc(N)c3c(c2c1)COC3C` (centres unmarked) [Example 136], for which the IC50 lay within 1000 to 10000 nM with HCT116 MTAP WT cells (Homo sapiens, HCT-116, 144 h) and 100 to 1000 nM in test [1] (HCT116-MTAP null, 144 h).
Turning to `Cc1ncc2c(N)nc3cc(F)c(C(=O)N(Cc4nc5ccc(S(F)(F)(F)(F)F)cc5[nH]4)CC(C)C)cc3n12` [Example 139], the IC50 with HCT116 MTAP WT cells (Homo sapiens, HCT-116, 144 h) was 1000 to 10000 nM; in test [1] (HCT116-MTAP null, 144 h) it was under 100 nM.
Regarding `CCN(Cc1nc2cc(C(F)(F)F)ccc2[nH]1)C(=O)c1cc2c(cc1F)nc(N)c1cnc(C)n12` [Example 140], the IC50 was 1000 to 10000 nM with HCT116 MTAP WT cells (Homo sapiens, HCT-116, 144 h) and 100 to 1000 nM in test [1] (HCT116-MTAP null, 144 h).
On to `Cc1ncc2c(N)nc3cc(F)c(C(=O)N(Cc4nc5ccc(C(F)(F)F)cc5[nH]4)c4ccnn4C)cc3n12` [Example 142], for which the IC50 was 1000 to 10000 nM with HCT116 MTAP WT cells and 100 to 1000 nM in test [1].
Turning to `COCC(C1CC1)N(Cc1nc2ccccc2s1)C(=O)c1ccc2nc(N)c(C)cc2c1` (centres unmarked) [Example 146], the IC50 in the test on HCT116 MTAP WT cells (Homo sapiens, HCT-116, 144 h) lay within 1000 to 10000 nM; in test [1] (144 h) it was 100 to 1000 nM.
